Here are results for 33 compounds from patent publication US12559455B2, “Compound as a UBR box domain ligand” (AUTOTAC INC., priority 2020, dated 2026).

In experiment [1] the target is T1, UBR1 (Rattus norvegicus, UniProt A0A8I5ZK69).
T1 construct: endogenous in cells; host or cells: L6 rat muscle-derived cells
As to the kind of experiment: Inhibition of muscle cell actin degradation by immunoblotting. In kind it is cell-based. To be noted: L6 cell line, compound 5 uM, 24 hours. As to the method:
To evaluate the actin degradation of compounds in muscle cells, a L6 cell line, which is a rat muscle-derived cell, was cultured using a DMEM medium containing 10% FBS and 1% streptomycin/penicillin in an incubator in which 5% carbon dioxide was maintained. In order to measure the UBR1 binding strength according to the treatment with a representative compound selected from the present compounds, cells were aliquoted into a 12-well plate. The cells were additionally cultured for 24 hours so as to be completely attached to the surface of the plate. […] To extract proteins from the collected cells, 50 uL of a lysis buffer (20 mM Tris, pH 7.4, 150 mM NaCl, 1% Triton-X-100, 2 mM NaF, 2 mM EDTA, 2 mM b-glycerophosphate, 5 mM sodium orthovanadate, 1 mM PMSF, leupeptin, aprotenin) was injected into each sample, and the cells were lysed. A sample buffer was added to each sample based on the measured total protein concentration, and the mixture was reacted at 100° C. for 5 minutes. After 5 uL was taken from the completely reacted sample and aliquoted into each well of an acrylamide gel, an immunoblotting method was performed, and the experimental results were illustrated in [FIG. 4], [FIG. 5], [FIG. 6], [FIG. 7], [FIG. 8], and [FIG. 9]. For the immunoblotting method, a representative experiment was schematized from three or more independent experiments.
Background: In western blotting, separated proteins are transferred to a membrane and probed.

For experiment [2], the target named is T2, UBR box of Human UBR1 (Homo sapiens, UniProt Q8IWV7).
T2 construct: A Gln97-Pro168 portion corresponding to the UBR box of Human UBR1; made in house; host or cells: E. coli
T2 sequence (Q8IWV7 97-168): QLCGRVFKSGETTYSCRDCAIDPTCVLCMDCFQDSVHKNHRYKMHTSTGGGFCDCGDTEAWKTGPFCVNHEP
The experiment can be described thus: UBR box domain binding by microscale thermophoresis (MST). The settings on record: RED-NHS labeled UBR1 UBR box protein (Gln97-Pro168), FIGS. 12 to 19. The protocol:
A Gln97-Pro168 portion corresponding to the UBR box of Human UBR1 (UniProt ID: Q81WV7) was cloned into a modified expression vector, and then expressed in E. coli. After affinity chromatography was used, a tag was removed by a protease, and then Gly-His-Met was added to the N-terminal. After ion chromatography was performed, a final UBR box protein of a UBR1 was purified using gel filtration chromatography in a buffer composition of 10 mM NaCl, 20 mM Tris-HCl, 2 mM beta-mercaptoethanol, and pH 7.5.
A dye of the Monolith protein labeling kit RED-NHS 2nd generation (Cat #MO-L011) has an NHS-ester group that forms a covalent bond with primary amines (lysine residues). This dye is optimized for a Monolith-series device equipped with a RED detector. A purified UBR1 UBR box protein was labeled according to the presented protocol using this kit.
Thermophoresis refers to a phenomenon in which particles move due to a temperature gradient. Particles present in a high temperature region have greater kinetic energy than particles present in a low temperature region, and more frequently collide with surrounding particles with greater energy. As a result, particles move from the high temperature region to the low temperature region.
Thermophoresis of proteins is typically different from that of protein-ligand complexes. This is because the binding of the ligand changes its size, electric charge, and solvation energy. […] Therefore, the binding of the UBR1 UBR box protein and the ligand compound was measured using MST, and it was confirmed that the presented ligand binds to the UBR1 UBR box (see FIGS. 12 to 19).
Background: MST reads how a fluorescent partner responds to local heating, with and without ligand.

T1 sequence (A0A8I5ZK69 1-1749): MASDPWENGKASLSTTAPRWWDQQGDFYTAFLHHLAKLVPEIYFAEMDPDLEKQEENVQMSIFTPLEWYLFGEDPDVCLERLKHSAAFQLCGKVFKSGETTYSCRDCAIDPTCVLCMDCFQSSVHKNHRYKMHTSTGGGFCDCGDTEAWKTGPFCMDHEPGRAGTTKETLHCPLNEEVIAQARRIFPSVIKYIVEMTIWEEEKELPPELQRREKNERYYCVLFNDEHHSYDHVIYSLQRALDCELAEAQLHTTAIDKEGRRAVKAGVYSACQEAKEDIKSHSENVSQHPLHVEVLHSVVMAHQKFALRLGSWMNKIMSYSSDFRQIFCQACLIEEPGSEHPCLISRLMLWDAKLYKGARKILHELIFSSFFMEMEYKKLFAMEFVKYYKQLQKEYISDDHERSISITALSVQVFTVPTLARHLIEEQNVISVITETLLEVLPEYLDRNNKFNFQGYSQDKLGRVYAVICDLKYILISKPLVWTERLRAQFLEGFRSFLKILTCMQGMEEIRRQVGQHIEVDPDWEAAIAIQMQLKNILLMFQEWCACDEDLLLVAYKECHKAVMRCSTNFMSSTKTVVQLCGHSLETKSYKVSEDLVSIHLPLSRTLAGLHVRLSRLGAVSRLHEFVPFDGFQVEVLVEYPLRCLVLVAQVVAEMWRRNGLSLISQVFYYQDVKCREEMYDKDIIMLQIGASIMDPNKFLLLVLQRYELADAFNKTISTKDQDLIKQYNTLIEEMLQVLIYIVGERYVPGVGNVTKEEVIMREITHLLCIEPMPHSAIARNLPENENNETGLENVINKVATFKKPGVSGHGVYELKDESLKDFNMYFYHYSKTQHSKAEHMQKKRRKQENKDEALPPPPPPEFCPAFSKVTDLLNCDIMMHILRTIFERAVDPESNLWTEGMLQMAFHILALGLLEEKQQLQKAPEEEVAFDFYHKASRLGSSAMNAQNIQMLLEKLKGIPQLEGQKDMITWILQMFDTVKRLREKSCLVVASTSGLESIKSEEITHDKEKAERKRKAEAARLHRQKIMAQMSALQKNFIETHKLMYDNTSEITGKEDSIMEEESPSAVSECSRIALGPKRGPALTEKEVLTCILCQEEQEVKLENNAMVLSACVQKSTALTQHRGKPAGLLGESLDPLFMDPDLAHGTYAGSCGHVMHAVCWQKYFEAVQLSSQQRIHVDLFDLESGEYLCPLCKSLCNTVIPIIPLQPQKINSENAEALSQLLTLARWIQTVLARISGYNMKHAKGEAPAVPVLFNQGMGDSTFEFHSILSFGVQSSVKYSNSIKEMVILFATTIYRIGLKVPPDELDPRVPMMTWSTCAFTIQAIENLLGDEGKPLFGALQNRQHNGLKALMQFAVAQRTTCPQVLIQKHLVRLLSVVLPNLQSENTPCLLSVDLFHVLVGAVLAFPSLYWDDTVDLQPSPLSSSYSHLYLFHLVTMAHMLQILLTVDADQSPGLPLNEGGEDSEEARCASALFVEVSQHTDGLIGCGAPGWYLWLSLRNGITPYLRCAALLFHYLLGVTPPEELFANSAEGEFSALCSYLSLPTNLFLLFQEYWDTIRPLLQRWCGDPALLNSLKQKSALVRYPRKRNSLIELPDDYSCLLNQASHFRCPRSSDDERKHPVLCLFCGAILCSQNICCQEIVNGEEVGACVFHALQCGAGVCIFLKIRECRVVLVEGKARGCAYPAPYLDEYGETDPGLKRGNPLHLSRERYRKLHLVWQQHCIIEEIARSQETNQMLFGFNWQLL

Consider `NC(=O)c1ccc(S(=O)(=O)NNC(=O)c2ccc(O)cc2)cc1` [Compound 15, 4-((2-(4-hydroxybenzoyl)hydrazinyl)sulfonyl)benzamide], for which the “level of ACTG2 compared to the control” value in experiment [1] is listed as “further increased”. On to `Nc1ccc(S(=O)(=O)NNC(=O)C2Cc3ccccc3C2)cc1` [Compound 31, 4-amino-N′-(2,3-dihydro-1H-indene-2-carbonyl)benzenesulfonohydrazide], for which the “level of ACTG2 compared to the control” value in experiment [1] is on record as “further increased”. For the compound `Nc1ccc(S(=O)(=O)NNC(=O)c2cccc3c2CCN3)cc1` [Compound 29, 4-amino-N′-(indoline-4-carbonyl)benzenesulfonohydrazide], in experiment [1], the “level of ACTG2 compared to the control” value is given as “further increased”. In the case of `O=C(NNS(=O)(=O)C1CCNCC1)c1ccc(O)cc1` [Compound 38, N′-(4-hydroxybenzoyl)piperidine-4-sulfonohydrazide], the “level of ACTA1 compared to the control” value in experiment [1] is “further increased”. In the case of `O=C(NNS(=O)(=O)c1ccc(NCCO)cc1)c1ccc(O)cc1` [Compound 11, N′-(4-hydroxybenzoyl)-4-((2-hydroxyethyl)amino)benzenesulfonohydrazide], the “binding to UBR1 UBR box (MST)” value in experiment [2] is reported as “binds”. On to `CC(N)c1ccc(S(=O)(=O)NNC(=O)c2ccc(O)cc2)cc1` (centres unmarked) [Compound 9, 4-(1-aminoethyl)-N′-(4-hydroxybenzoyl)benzenesulfonohydrazide], for which the “binding to UBR1 UBR box (MST)” value in experiment [2] is reported as “binds”. Besides, in experiment [1], the “level of ACTA2 compared to the control” value is recorded as “further increased”.

For the compound `O=C(NNS(=O)(=O)c1ccc([N+](=O)[O-])c(N2CCCC2)c1)c1ccc(O)cc1` [Compound 22, N′-(4-hydroxybenzoyl)-4-nitro-3-(pyrrolidin-1-yl)benzenesulfonohydrazide], the “level of ACTA2 compared to the control” value in experiment [1] was “further increased”.

As for `O=C(NNS(=O)(=O)c1n[nH]c2ccccc12)c1ccc(O)cc1` [Compound 35, N′-(4-hydroxybenzoyl)-1H-indazole-3-sulfonohydrazide], the “level of ACTA1 compared to the control” value in experiment [1] was “further increased”. `Nc1ccc(S(=O)(=O)NNC(=O)c2c[nH]c3ccccc23)cc1` [Compound 20, 4-amino-N′-(1H-indole-3-carbonyl)benzenesulfonohydrazide]: the “level of ACTA2 compared to the control” value in experiment [1] was “further increased”. For `Nc1ccc(S(=O)(=O)NNC(=O)c2ccc(O)cc2)cc1N1CCNCC1` [Compound 30, 4-amino-N′-(4-hydroxybenzoyl)-3-(piperazin-1-yl)benzenesulfonohydrazide], the “level of ACTG2 compared to the control” value in experiment [1] is reported as “further increased”. As to `NC(=O)c1ccc(C(=O)NNS(=O)(=O)c2ccc(N)cc2)cc1` [Compound 18, 4-(2-((4-aminophenyl)sulfonyl)hydrazine-1-carbonyl)benzamide], in experiment [1], the “level of ACTA2 compared to the control” value was “further increased”. Regarding “(1R,4R)-4-amino-N′-(4-hydroxybenzoyl)cyclohexane-1-sulfonohydrazide [Compound 44]”, the “level of ACTA1 compared to the control” value in experiment [1] is recorded as “further increased”. `Nc1cccc(S(=O)(=O)NNC(=O)c2ccc(O)cc2)c1` [Compound 8, 3-amino-N′-(4-hydroxybenzoyl)benzenesulfonohydrazide]: the “binding to UBR1 UBR box (MST)” value in experiment [2] is recorded as “binds”. Also, the “level of ACTA2 compared to the control” value in experiment [1] is recorded as “further increased”. As for `Nc1ccc(S(=O)(=O)NNC(=O)c2ccc(O)cc2)cc1-c1ccccc1` [Compound 17, 6-amino-N′-(4-hydroxybenzoyl)-[1,1′-biphenyl]-3-sulfonohydrazide], the “level of ACTG2 compared to the control” value in experiment [1] was “further increased”. For the compound `O=C(NNS(=O)(=O)c1cccc2c1CCN2)c1ccc(O)cc1` [Compound 25, N′-(4-hydroxybenzoyl)indoline-4-sulfonohydrazide], the “level of ACTA2 compared to the control” value in experiment [1] is “further increased”. Same read-out and setting: the same measure for `Nc1ccc(S(=O)(=O)NNC(=O)c2ccc(O)cc2)cc1N1CCCCC1` [Compound 23, 4-amino-N′-(4-hydroxybenzoyl)-3-(piperidin-1-yl)benzenesulfonohydrazide]: “further increased”. The same measure, in the same setting: the entry for `O=C(NNS(=O)(=O)c1cn[nH]c1)c1ccc(O)cc1` [Compound 24, N′-(4-hydroxybenzoyl)-1H-pyrazole-4-sulfonohydrazide] is “further increased”. In the case of `Cc1nc(S(=O)(=O)NNC(=O)c2ccc(O)cc2)cs1` [Compound 42, N′-(4-hydroxybenzoyl)-2-methylthiazole-4-sulfonohydrazide], in experiment [1], the “level of ACTC1 compared to the control” value is recorded as “further increased”. Consider `Nc1ccc(S(=O)(=O)NNC(=O)c2ccc(-c3ccccc3)cc2)cc1` [Compound 6, N′-([1,1′-biphenyl]-4-carbonyl)-4-aminobenzenesulfonohydrazide], for which the “level of ACTA1 compared to the control” value in experiment [1] was “further increased”. Take `Nc1ccc(S(=O)(=O)NNC(=O)c2ccc3c(c2)NCC3)cc1` [Compound 36, 4-amino-N′-(indoline-6-carbonyl)benzenesulfonohydrazide]: the “level of ACTA1 compared to the control” value in experiment [1] was “further increased”. Regarding `O=C(NNS(=O)(=O)c1cccc2[nH]ccc12)c1ccc(O)cc1` [Compound 26, N′-(4-hydroxybenzoyl)-1H-indole-4-sulfonohydrazide], the “level of ACTA2 compared to the control” value in experiment [1] was “further increased”.

For the compound `Nc1ccc(S(=O)(=O)NNC(=O)Cc2ccccc2)cc1` [Compound 34, 4-amino-N′-(2-phenylacetyl)benzenesulfonohydrazide], the “level of ACTA2 compared to the control” value in experiment [1] is listed as “further increased”.

For the compound `Nc1ccc(S(=O)(=O)NNC(=O)N2CCNCC2)cc1N1CCOCC1` [Compound 41, 4-amino-3-morpholino-N′-(piperazine-1-carbonyl)benzenesulfonohydrazide], the “level of ACTC1 compared to the control” value in experiment [1] is “further increased”. Take `Nc1ccc(S(=O)(=O)NNC(=O)Nc2ccccc2)cc1` [Compound 27, 2-((4-aminophenyl)sulfonyl)-N-phenylhydrazine-1-carboxamide]: the “level of ACTA2 compared to the control” value in experiment [1] is reported as “further increased”. `O=C(NNS(=O)(=O)C1CCNC1)c1ccc(O)cc1` (centres unmarked) [Compound 46, N′-(4-hydroxybenzoyl)pyrrolidine-3-sulfonohydrazide]: the “level of ACTA1 compared to the control” value in experiment [1] is “further increased”. Same read-out and setting: the same measure for `Nc1ccc(S(=O)(=O)NNC(=O)c2ccc3c(c2)NCC3)cc1N1CCOCC1` [Compound 39, 4-amino-N′-(indoline-6-carbonyl)-3-morpholinobenzenesulfonohydrazide]: “further increased”. Consider `Nc1ccc(CNNC(=O)c2ccc(O)cc2)cc1` [Compound 19, N′-(4-aminobenzyl)-4-hydroxybenzohydrazide], for which, in experiment [1], the “level of ACTA2 compared to the control” value is recorded as “further increased”. As for `Nc1ccc(S(=O)(=O)NNC(=O)C2CNc3ccccc32)cc1` (centres unmarked) [Compound 37, 4-amino-N′-(indoline-3-carbonyl)benzenesulfonohydrazide], in experiment [1], the “level of ACTA1 compared to the control” value is “further increased”. For `Nc1ccc(S(=O)(=O)NNC(=O)c2cccc3[nH]ccc23)cc1N1CCOCC1` [Compound 28, 4-amino-N′-(1H-indole-4-carbonyl)-3-morpholinobenzenesulfonohydrazide], in experiment [1], the “level of ACTA2 compared to the control” value is “further increased”. With `Cc1oc(C(=O)O)cc1S(=O)(=O)NNC(=O)c1ccc(O)cc1` [Compound 45, 4-((2-(4-hydroxybenzoyl)hydrazinyl)sulfonyl)-5-methylfuran-2-carboxylic acid], the “level of ACTA1 compared to the control” value in experiment [1] is recorded as “further increased”. On to `Nc1ccc(S(=O)(=O)NNC(=O)N2Cc3ccccc3C2)cc1` [Compound 32, 4-amino-N′-(isoindoline-2-carbonyl)benzenesulfonohydrazide], for which the “level of ACTA2 compared to the control” value in experiment [1] is recorded as “further increased”. For the compound `NC1CCC(S(=O)(=O)NNC(=O)c2ccc(O)cc2)CC1` [Compound 43, (1S,4S)-4-amino-N′-(4-hydroxybenzoyl)cyclohexane-1-sulfonohydrazide], the “level of ACTA1 compared to the control” value in experiment [1] was “further increased”.

As for `O=C(NNS(=O)(=O)c1cc2cccnc2[nH]1)c1ccc(O)cc1` [Compound 47, N′-(4-hydroxybenzoyl)-1H-pyrrolo[2,3-b]pyridine-2-sulfonohydrazide], the “level of ACTA1 compared to the control” value in experiment [1] is recorded as “further increased”.
